Laboratory results taken from patent US9346812B2, “Substituted pyrrolopyrimidine compounds, compositions thereof, and methods of treatment therewith” (Signal Pharmaceutical LLC, priority 2013, dated 2016).

Test system: CAL51 cell proliferation
Test: Cell Titer Glo Proliferation Assay (CAL51)
Assay type: cell-based, human
Details: Homo sapiens, CAL-51; CAL51 cell proliferation, 72 h, Cell Titer Glo luminescence; read-out: Act. Level
Procedure, shortened: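 CAL51 triple-negative breast cancer cells in DMEM or RPMI with 10% FBS were treated after overnight culture with serially diluted compound at 0.2% final DMSO. After 72 h, viability was read as CellTiter-Glo luminescence.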

SMILES | IC50
CNC(=O)c1ccc(Nc2nc(OC3CCOCC3)c3c(-c4ccn(C)n4)c[nH]c3n2)c(OC)c1 [Example 163, 3-methoxy-N-methyl-4-(5-(1-methyl-1H-pyrazol-3-yl)-4-(tetrahydro-2H-pyran-4-yloxy)-7H-pyrrolo[2,3-d]pyrimidin-2-ylamino)benzamide] | < 100 nM
Cc1cc(C(=O)N(C)C)ccc1Nc1nc(O[C@H]2CCOC2)c2c(-c3cnn(C)c3)c[nH]c2n1 [Example 164, (S)-N,N,3-trimethyl-4-(5-(1-methyl-1H-pyrazol-4-yl)-4-(tetrahydrofuran-3-yloxy)-7H-pyrrolo[2,3-d]pyrimidin-2-ylamino)benzamide] | < 100 nM
CNC(=O)c1ccc(Nc2nc(O[C@H]3CCOC3)c3c(-c4cnn(C)c4)c[nH]c3n2)c(C)c1 [Example 165, (S)-N,3-dimethyl-4-(5-(1-methyl-1H-pyrazol-4-yl)-4-(tetrahydrofuran-3-yloxy)-7H-pyrrolo[2,3-d]pyrimidin-2-ylamino)benzamide] | < 100 nM
CNC(=O)c1ccc(Nc2nc(OC)c3c(-c4ccnc(C)c4)c[nH]c3n2)c(OC)c1 [Example 166, 3-methoxy-4-(4-methoxy-5-(2-methylpyridin-4-yl)-7H-pyrrolo [2,3-d]pyrimidin-2-ylamino)-N-methylbenzamide] | < 100 nM
CNC(=O)c1ccc(Nc2nc(OC3CCOCC3)c3c(-c4ccnc(C)c4)c[nH]c3n2)c(OC)c1 [Example 167, 3-methoxy-N-methyl-4-(5-(2-methylpyridin-4-yl)-4-(tetrahydro-2H-pyran-4-yloxy)-7H-pyrrolo[2,3-d]pyrimidin-2-ylamino)benzamide] | < 100 nM
CNC(=O)c1ccc(Nc2nc(OCCO)c3c(-c4ccc5nc(C)oc5c4)c[nH]c3n2)c(OC)c1 [Example 168, 4-(4-(2-hydroxyethoxy)-5-(2-methylbenzo[d]oxazol-6-yl)-7H-pyrrolo[2,3-d]pyrimidin-2-ylamino)-3-methoxy-N-methylbenzamide] | < 100 nM
CNC(=O)c1ccc(Nc2nc(O[C@H]3CCOC3)c3c(-c4ccc5nc(C)oc5c4)c[nH]c3n2)c(OC)c1 [Example 169, (S)-3-methoxy-N-methyl-4-(5-(2-methylbenzo[d]oxazol-6-yl)-4-(tetrahydrofuran-3-yloxy)-7H-pyrrolo[2,3-d]pyrimidin-2-ylamino)benzamide] | < 100 nM
CNC(=O)c1ccc(Nc2nc(OC3CCOCC3)c3c(-c4ccc5nc(C(C)C)oc5c4)c[nH]c3n2)c(OC)c1 [Example 170, 4-(5-(2-isopropylbenzo[d]oxazol-6-yl)-4-(tetrahydro-2H-pyran-4-yloxy)-7H-pyrrolo[2,3-d]pyrimidin-2-ylamino)-3-methoxy-N-methylbenzamide] | 100 to 400 nM
CNC(=O)c1ccc(Nc2nc(OC3CCOCC3)c3c(-c4nccn4C)c[nH]c3n2)c(OC)c1 [Example 172, 3-methoxy-N-methyl-4-(5-(1-methyl-1H-imidazol-2-yl)-4-(tetrahydro-2H-pyran-4-yloxy)-7H-pyrrolo[2,3-d]pyrimidin-2-ylamino)benzamide] | 1000 to 10000 nM
CNC(=O)c1ccc(Nc2nc(OC3CCOCC3)c3c(-c4ncco4)c[nH]c3n2)c(OC)c1 [Example 173, 3-methoxy-N-methyl-4-(5-(oxazol-2-yl)-4-(tetrahydro-2H-pyran-4-yloxy)-7H-pyrrolo[2,3-d]pyrimidin-2-ylamino)benzamide] | 400 to 1000 nM
CNC(=O)c1ccc(Nc2nc(OC3CCOCC3)c3c(-c4nnco4)c[nH]c3n2)c(OC)c1 [Example 174, 4-(5-(1,3,4-oxadiazol-2-yl)-4-(tetrahydro-2H-pyran-4-yloxy)-7H-pyrrolo[2,3-d]pyrimidin-2-ylamino)-3-methoxy-N-methylbenzamide] | 400 to 1000 nM
CNC(=O)c1ccc(Nc2nc(OC3CCOCC3)c3c(-c4cccc([C@H](C)O)c4)c[nH]c3n2)c(OC)c1 [Example 175, (S)-4-(5-(3-(1-hydroxyethyl)phenyl)-4-(tetrahydro-2H-pyran-4-yloxy)-7H-pyrrolo[2,3-d]pyrimidin-2-ylamino)-3-methoxy-N-methylbenzamide] | 100 to 400 nM
Cc1cc(C(=O)N(C)C)ccc1Nc1nc(O[C@H]2CCOC2)c2c(-c3ccncc3)c[nH]c2n1 [Example 176, (S)-N,N,3-trimethyl-4-(5-(pyridin-4-yl)-4-(tetrahydrofuran-3-yloxy)-7H-pyrrolo[2,3-d]pyrimidin-2-ylamino)benzamide] | 100 to 400 nM
CNC(=O)c1ccc(Nc2nc(OC)c3c(-c4cnn(C)c4)c[nH]c3n2)c(OC)c1 [Example 177, 3-methoxy-4-(4-methoxy-5-(1-methyl-1H-pyrazol-4-yl)-7H-pyrrolo [2,3-d]pyrimidin-2-ylamino)-N-methylbenzamide] | 100 to 400 nM
CNC(=O)c1ccc(Nc2nc(O[C@H]3CCOC3)c3c(-c4ccnc(C)c4)c[nH]c3n2)c(OC)c1 [Example 178, (S)-3-methoxy-N-methyl-4-(5-(2-methylpyridin-4-yl)-4-(tetrahydrofuran-3-yloxy)-7H-pyrrolo [2,3-d]pyrimidin-2-ylamino) benzamide] | < 100 nM
CNC(=O)c1ccc(Nc2nc(OC3COC3)c3c(-c4ccc5nc(C)oc5c4)c[nH]c3n2)c(OC)c1 [Example 179, 3-methoxy-N-methyl-4-(5-(2-methylbenzo[d]oxazol-6-yl)-4-(oxetan-3-yloxy)-7H-pyrrolo[2,3-d]pyrimidin-2-ylamino)benzamide] | < 100 nM
CNC(=O)c1ccc(OC)c(Nc2nc(OC(C)C)c3c(-c4ccc5nc(C)oc5c4)c[nH]c3n2)c1 [Example 180, 3-(4-isopropoxy-5-(2-methylbenzo[d]oxazol-6-yl)-7H-pyrrolo[2,3-d]pyrimidin-2-ylamino)-4-methoxy-N-methylbenzamide] | 100 to 400 nM
CNC(=O)c1ccc(OC)c(Nc2nc(OC3CCOCC3)c3c(-c4ccc5nc(C)oc5c4)c[nH]c3n2)c1 [Example 181, 4-methoxy-N-methyl-3-(5-(2-methylbenzo[d]oxazol-6-yl)-4-(tetrahydro-2H-pyran-4-yloxy)-7H-pyrrolo[2,3-d]pyrimidin-2-ylamino)benzamide] | 100 to 400 nM
CNC(=O)c1ccc(-c2c[nH]c3nc(Nc4ccc(C(=O)NC)cc4OC)nc(O[C@H]4CCOC4)c23)cc1 [Example 182, (S)-3-methoxy-N-methyl-4-(5-(4-(methylcarbamoyl)phenyl)-4-(tetrahydrofuran-3-yloxy)-7H-pyrrolo[2,3-d]pyrimidin-2-ylamino)benzamide] | < 100 nM
CNC(=O)c1ccc(Nc2nc(OC3CCOCC3)c3c(-c4ccc5nc(C)oc5c4)c[nH]c3n2)c(OC)n1 [Example 183, 6-methoxy-N-methyl-5-(5-(2-methylbenzo[d]oxazol-6-yl)-4-(tetrahydro-2H-pyran-4-yloxy)-7H-pyrrolo[2,3-d]pyrimidin-2-yalmino)picolinamide] | 100 to 400 nM
CNC(=O)c1ccc(Nc2nc(OC3CCOCC3)c3c(-c4cnn(C)c4)c[nH]c3n2)c(OC)c1 [Example 184, 3-methoxy-N-methyl-4-(5-(1-methyl-1H-pyrazol-4-yl)-4-(tetrahydro-2H-pyran-4-yloxy)-7H-pyrrolo[2,3-d]pyrimidin-2-ylamino)benzamide] | < 100 nM
CNC(=O)c1ccc(Nc2nc(OC(C)C)c3c(-c4ccnc(OC)c4)c[nH]c3n2)c(OC)c1 [Example 185, 4-(4-isopropoxy-5-(2-methoxypyridin-4-yl)-7H-pyrrolo [2,3-d]pyrimidin-2-ylamino)-3-methoxy-N-methylbenzamide] | < 100 nM
CNC(=O)c1ccc(Nc2nc(OC3CCOCC3)c3c(-c4cnccn4)c[nH]c3n2)c(OC)c1 [Example 186, 3-methoxy-N-methyl-4-(5-(pyrazin-2-yl)-4-(tetrahydro-2H-pyran-4-yloxy)-7H-pyrrolo[2,3-d]pyrimidin-2-ylamino) benzamide] | 100 to 400 nM
CNC(=O)c1ccc(Nc2nc(OC(C)C)c3c(-c4cccc(S(C)(=O)=O)c4)c[nH]c3n2)c(OC)c1 [Example 187, 4-(4-isopropoxy-5-(3-(methylsulfonyl)phenyl)-7H-pyrrolo[2,3-d]pyrimidin-2-ylamino)-3-methoxy-N-methylbenzamide] | 100 to 400 nM
CNC(=O)c1ccc(-c2c[nH]c3nc(Nc4ccc(C(=O)NC)cc4OC)nc(OC(C)C)c23)cc1 [Example 188, 4-(4-isopropoxy-5-(4-(methylcarbamoyl)phenyl)-7H-pyrrolo[2,3-d]pyrimidin-2-ylamino)-3-methoxy-N-methylbenzamide] | < 100 nM
CNC(=O)c1ccc(Nc2nc(OC(C)C)c3c(-c4cnn(C)c4)c[nH]c3n2)c(OC)c1 [Example 189, 4-(4-isopropoxy-5-(1-methyl-1H-pyrazol-4-yl)-7H-pyrrolo[2,3-d]pyrimidin-2-ylamino)-3-methoxy-N-methylbenzamide] | < 100 nM
CNC(=O)c1ccc(Nc2nc(OC)c3c(-c4ccncc4)c[nH]c3n2)c(OC)c1 [Example 190, 3-methoxy-4-(4-methoxy-5-(pyridin-4-yl)-7H-pyrrolo[2,3-d]pyrimidin-2-ylamino)-N-methylbenzamide] | < 100 nM
CNC(=O)c1ccc(Nc2nc(OC3CCOCC3)c3c(-c4ccc5nc(C)oc5c4)c[nH]c3n2)c(OC(F)(F)F)c1 [Example 192, N-methyl-4-(5-(2-methylbenzo[d]oxazol-6-yl)-4-(tetrahydro-2H-pyran-4-yloxy)-7H-pyrrolo[2,3-d]pyrimidin-2-ylamino)-3-(trifluoromethoxy)benzamide] | 100 to 400 nM
CNC(=O)c1ccc(Nc2nc(OC(C)C)c3c(-c4ccc(-c5ncc[nH]5)cc4)c[nH]c3n2)c(OC)c1 [Example 193, 4-(5-(4-(1H-imidazol-2-yl)phenyl)-4-isopropoxy-7H-pyrrolo [2,3-d]pyrimidin-2-ylamino)-3-methoxy-N-methylbenzamide] | < 100 nM
CNC(=O)c1ccc(Nc2nc(OC(C)C)c3c(-c4ccnc(N)c4)c[nH]c3n2)c(OC)c1 [Example 194, 4-(5-(2-aminopyridin-4-yl)-4-isopropoxy-7H-pyrrolo[2,3-d]pyrimidin-2-ylamino)-3-methoxy-N-methylbenzamide] | < 100 nM
